Experimental data: article PMC9233739 (Journal of medicinal chemistry, 2016)

Legend:
P. berghei sporozoites = format: cell-based; conditions: for LBI (TM90-C2B/Pb): liver blood index LBI = TM90-C2B/Pb; for LBI (W2/Pb): liver blood index LBI = W2/Pb
J774 cell lines = assay: cytotoxicity in J774 cells, 96 well plate format; format: cell-based; conditions: Mus musculus, J774, read-out: EC50 J774 (internal controls)
P. falciparum TM90-C2B = assay: microbe, parasite or virus in culture; format: cell-based; conditions: Plasmodium falciparum, TM90, read-out: EC50 TM90-C2B
[1] = test system: Plasmodium berghei-GFP parasites; assay: modified Thompson test in mice; conditions: 10 mg/kg oral on days 3, 4, 5 in HEC/Tween; vs untreated control animals
[2] = test system: P. berghei / P. cynomolgi infections; conditions: cited from earlier work

Row | Structure (SMILES) | LBI (TM90-C2B/Pb) (P. berghei sporozoites) | LBI (W2/Pb) (P. berghei sporozoites) | also measured
1 | CCCc1cc2c(=O)c(C(=O)OC)c[nH]c2cc1OCCOc1ccccc1 [Compound 6x] | >707 | >2.62 | –
2 | COC(=O)c1c[nH]c2cc(OCCCc3ccccc3)ccc2c1=O [Compound 6j] | >149 | – | –
3 | CCCCc1ccc2[nH]ccc(=O)c2c1 [Compound 8c] | >31.4 | – | –
4 | O=c1cc[nH]c2cc(OCCOc3ccccc3)ccc12 [Compound 8a] | <21.7 | <16.8 | –
5 | C[C@H]1[C@@H](O)O[C@@H]2O[C@@]3(C)CC[C@H]4[C@H](C)CC[C@@H]1[C@@]24OO3 [DHA, dihydroartemisinin] | – | – | EC50 (J774 cell lines): 1.53 µM
6 | CCCCCc1cc2c(=O)c(C(=O)OC)c[nH]c2cc1OCCOc1ccccc1 [Compound 6y] | >123 | >0.33 | –
7 | COC(=O)c1c[nH]c2ccc(OC)cc2c1=O [Compound 6o] | >134 | – | –
8 | COC(=O)c1c[nH]c2cc(F)ccc2c1=O [Compound 6n] | <3.95 | <0.262 | –
9 | O=C1C(O)=C([C@H]2CC[C@H](c3ccc(Cl)cc3)CC2)C(=O)c2ccccc21 [ATO, atovaquone] | – | – | EC50 (P. falciparum TM90-C2B): 18.4 nM; EC50 (J774 cell lines): 23.8 µM
10 | COC(=O)c1c[nH]c2ccc(-c3ccccc3)cc2c1=O [Compound 6u] | <40.1 | <11.7 | –
11 | CCN(CC)CCCC(C)Nc1ccnc2cc(Cl)ccc12 (stereo not shown) [CQ, Chloroquine] | – | – | EC50 (J774 cell lines): 47.2 µM
12 | CCCCc1cc2c(=O)c(C(=O)OC)c[nH]c2cc1OCCOc1ccccc1 [Compound 6b] | – | – | Inhibition (%) Day 6 PE [1]: <1%; dose producing radical cures [2]: 15 mg/kg
